Structures can show the parent of a compound that is named as a salt.
The compounds below were run on IRE-1α-mediated XBP-1 splicing in human myeloma MM.1s cells (assay: Cellular EC50: endogenous XBP-1 splicing in myeloma cells by RT-PCR (DTT stress)). Conditions: MM1.S, average cellular EC50, XBP-1 splicing in myeloma cells, read-out: EC50_av.
Format: cell-based
Procedure: Human myeloma MM.1s cells are incubated with a compound for 1.25 hours before stressing the cells with 2 mM dithiothreitol (DTT). After an additional 45 minutes (2 hours total) with compound and DTT, the cells are harvested with TRIZOL® (a mono-phasic solution of phenol and guanidine isothiocyanate), and total RNA is prepared as directed by the manufacturer (Invitrogen). Human XBP-1 is amplified by RT-PCR with the following primers, which flank the 26 base unconventional intron excised by IRE-1α:
RT-PCR of unstressed (U) cells then generates the upper band. When cells are stressed (S) with the endoplasmic reticulum (ER) stressing agent DTT, IRE-1α is activated due to accumulating unfolded protein and the resulting RT-PCR, product is 26 base pairs shorter.
Compounds which pass specificity assays are assayed for cellular EC50 using endogenous XBP-1 splicing in myeloma cells. XBP-1 is regulated through the excision of a 26 nucleotide intron from the XBP-1 mRNA by the highly specific endoribonuclease activity of IRE-1α. […] This splicing event is used to measure IRE-1α activity on XBP-1 mRNA in cells and tissues.
Briefly, compounds are incubated in the presence or absence of an ER stress agent (e.g., DTT), and the ratio of XBP-1u (unspliced) to XBP-1 s (spliced) is quantified by RT-PCR. The ED50 is determined as the 50% XBP-1s to total XPB-1 levels.

Structure (SMILES)	EC50 [µM]
O=Cc1c(O)ccc2nc(-c3cccc(C(=O)N4CCCC4)c3)ccc12	> 10
CC1CCN(C(=O)c2ccc(-c3nc4ccc(O)c(C=O)c4s3)cc2)CC1 [Compound 57]	> 10
COC(=O)c1ccc(-c2nc3ccc(O)c(C=O)c3[nH]2)cc1 [Compound 59]	> 10
Cc1c(-c2cccc(C(=O)N3CCOCC3)c2)c(=O)oc2c(C=O)c(O)ccc12 [Example 13]	< 10
Cc1c(CCC(=O)N2CCN(C)CC2)c(=O)oc2c(C=O)c(O)ccc12 [Example 15]	< 10
Cc1c(CCC(=O)N2CCOCC2)c(=O)oc2c(C=O)c(O)ccc12 [Example 69]	< 10
COCc1cc(=O)oc2c(C=O)c(O)cc(OC)c12 [Example 122]	< 10
COCCc1c(C)c2c(O)cc(O)c(C=O)c2oc1=O [Example 123]	< 10
COCCc1c(C)c2c(OC)cc(O)c(C=O)c2oc1=O [Example 124]	< 10
C=CCc1c(C)c2c(OC)cc(O)c(C=O)c2oc1=O [Example 126]	< 10
COc1cc(O)c(C=O)c2oc(=O)c(C)c(CN3CCOCC3)c12 [Example 134]	< 10
COc1cc(O)c(C=O)c2oc(=O)c(C)c(CN(C)C)c12 [Example 135]	< 10
CCOC(=O)CCc1c(C)c2cc(N(C)C(C)=O)c(O)c(C=O)c2oc1=O [Example 144]	> 10
COCCOc1cc(O)c(C=O)c2oc(=O)c(CC(=O)N3CCOCC3)c(C)c12 [Example 160]	< 10
COCCOc1cc(O)c(C=O)c2oc(=O)c(CC(=O)N3CCN(C)CC3)c(C)c12 [Example 161]	< 10
COCCOc1cc(O)c(C=O)c2oc(=O)c(CC(=O)NCCN3CCOCC3)c(C)c12 [Example 163]	< 10
COCCOc1cc(O)c(C=O)c2oc(=O)c(C)c(C)c12 [Example 165]	< 10
COc1cc(O)c(C=O)c2oc(=O)c(CC(=O)N3CCN(C)CC3)c(C)c12 [Example 178]	< 10

Structure (SMILES)	EC50 [µM]
COCCOc1cc2c(C)c(CC(=O)NCCN3CCOCC3)c(=O)oc2c(C=O)c1O [Example 187]	< 10
COCCOc1cc2c(C)c(CC(=O)N3CCOCC3)c(=O)oc2c(C=O)c1O [Example 188]	< 10
COCCOc1cc2c(C)c(CC(=O)N3CCN(C)CC3)c(=O)oc2c(C=O)c1O [Example 189]	< 10
COCCNC(=O)Cc1c(C)c2cc(OCCOC)c(O)c(C=O)c2oc1=O [Example 190]	< 10
CCNC(=O)Cc1c(C)c2cc(OCCOC)c(O)c(C=O)c2oc1=O [Example 191]	< 10
COCCNC(=O)CCc1c(C)c2cc(OCCN3CCOCC3)c(O)c(C=O)c2oc1=O [Example 202]	> 10
COc1cc2c(=O)c(CC(=O)N3CCN(C)CC3)c(C)oc2c(C=O)c1O [Example 208]	> 10
COc1cc2c(=O)c(CC(=O)NCCN(C)C)c(C)oc2c(C=O)c1O [Example 211]	> 10
COc1cc2c(=O)c(CCC(=O)NCCN(C)C)c(C)oc2c(C=O)c1O [Example 214]	> 10
Cc1oc2c(C=O)c(O)ccc2c(=O)c1CCC(=O)N1CCOCC1 [Example 216]	< 10
Cc1oc2c(C=O)c(O)ccc2c(=O)c1CCC(=O)NCCN1CCOCC1 [Example 219]	> 10
Cc1oc2c(C=O)c(O)ccc2c(=O)c1CC(=O)N1CCN(C)CC1 [Example 222]	< 10
COCCNC(=O)Cc1c(C)oc2c(C=O)c(O)cc(OC)c2c1=O [Example 226]	< 10
COc1cc(O)c(C=O)c2oc(C)c(CC(=O)N3CCOCC3)c(=O)c12 [Example 227]	< 10
CCNC(=O)Cc1c(C)oc2c(C=O)c(O)cc(OC)c2c1=O [Example 228]	< 10
Cn1c(CCC(=O)N2CCOCC2)nc2ccc(O)c(C=O)c21 [Example 229]	> 10
CCNC(=O)CCc1nc2c(C=O)c(O)ccc2n1C [Example 230]	> 10

Other lines, results leading:

EC50 [µM]	Structure (SMILES)
> 10	CC1CCN(C(=O)c2ccc(-c3ccc4c(C=O)c(O)ccc4n3)cc2)CC1 [Compound 47]
< 10	O=Cc1c(O)ccc2nc(-c3ccc(C(=O)N4CCCC4)cc3)ccc12 [Compound 48]
< 10	CC(=O)NC1CCN(c2ccc3c(C=O)c(O)ccc3n2)C1 (centres unmarked) [Compound 51]
> 10	O=Cc1c(O)ccc2nc(-c3ccc(C(=O)NCCN4CCOCC4)cc3)[nH]c12 [Compound 60]
< 10	Cc1c(Br)c(=O)oc2c(C=O)c(O)ccc12 [Example 1]
< 10	Cc1c(-c2ccc(C(=O)N3CCN(C)CC3)cc2)c(=O)oc2c(C=O)c(O)ccc12 [Example 2]
> 10	CCN(CC)CCc1c(C)c2ccc(O)c(C=O)c2oc1=O [Example 4]
< 10	Cc1c(-c2ccc(C(=O)N3CCC(C)CC3)cc2)c(=O)oc2c(C=O)c(O)ccc12 [Example 19]
< 10	Cc1cc(=O)oc2c(C=O)c(O)c(F)cc12 [Example 23, hydrochloride]
< 10	O=Cc1c(O)ccc2nc(-c3cccc(C(=O)N4CCOCC4)c3)ccc12 [Example 43]
> 10	CN1CCN(C2CCN(c3nc4ccc(O)c(C=O)c4s3)C2)CC1 (centres unmarked) [Example 54]
> 10	Cc1oc2c(C=O)c(O)ccc2c(=O)c1CCC(=O)N1CCN(C)CC1 [Example 88]
> 10	COc1cc2c(=O)c(CCC(=O)NCCN3CCOCC3)c(C)oc2c(C=O)c1O [Example 93]
> 10	COc1cc2c(=O)c(CCC(=O)N3CCN(C)CC3)c(C)oc2c(C=O)c1O [Example 94]
< 10	COCCc1c(C)c2cc(OC)c(O)c(C=O)c2oc1=O [Example 125]
< 10	COCCOCCc1c(C)c2c(OC)cc(O)c(C=O)c2oc1=O [Example 145]
< 10	CCOC(=O)Cc1c(C)c2c(OCCOC)cc(O)c(C=O)c2oc1=O [Example 158]
< 10	COCCNC(=O)Cc1c(C)c2c(OCCOC)cc(O)c(C=O)c2oc1=O [Example 159]
< 10	CCNC(=O)Cc1c(C)c2c(OCCOC)cc(O)c(C=O)c2oc1=O [Example 162]
> 10	COCCOc1cc(O)c(C=O)c2oc(=O)c(CC(=O)NCCN(C)C)c(C)c12 [Example 164]

EC50 [µM]	Structure (SMILES)
< 10	COc1cc2c(C)c(CC(=O)N3CCOCC3)c(=O)oc2c(C=O)c1O [Example 167]
< 10	CCNC(=O)CCc1c(C)c2cc(OCCOC)c(O)c(C=O)c2oc1=O [Example 183]
< 10	COc1cc(O)c(C=O)c2oc(=O)c(CCC(=O)NCCN(C)C)c(C)c12 [Example 195]
< 10	Cc1c(C)c2cc(OCCN3CCOCC3)c(O)c(C=O)c2oc1=O [Example 203]
> 10	CCNC(=O)CCc1c(C)c2cc(OCCN3CCOCC3)c(O)c(C=O)c2oc1=O [Example 204]
10	COCCNC(=O)Cc1c(C)c2cc(OCCN3CCOCC3)c(O)c(C=O)c2oc1=O [Example 205]
10	Cc1c(CC(=O)N2CCOCC2)c(=O)oc2c(C=O)c(O)c(OCCN3CCOCC3)cc12 [Example 206]
> 10	COc1cc2c(=O)c(CC(=O)N3CCOCC3)c(C)oc2c(C=O)c1O [Example 207]
< 10	CCNC(=O)Cc1c(C)oc2c(C=O)c(O)c(OC)cc2c1=O [Example 209]
> 10	COc1cc2c(=O)c(CC(=O)NCCN3CCOCC3)c(C)oc2c(C=O)c1O [Example 210]
> 10	COCCNC(=O)CCc1c(C)oc2c(C=O)c(O)c(OC)cc2c1=O [Example 212]
> 10	CCNC(=O)CCc1c(C)oc2c(C=O)c(O)c(OC)cc2c1=O [Example 213]
< 10	COCCNC(=O)CCc1c(C)oc2c(C=O)c(O)ccc2c1=O [Example 215]
< 10	CCNC(=O)CCc1c(C)oc2c(C=O)c(O)ccc2c1=O [Example 217]
> 10	Cc1oc2c(C=O)c(O)ccc2c(=O)c1CCC(=O)NCCN(C)C [Example 218]
< 10	COCCNC(=O)Cc1c(C)oc2c(C=O)c(O)ccc2c1=O [Example 220]
> 10	Cc1oc2c(C=O)c(O)ccc2c(=O)c1CC(=O)N1CCOCC1 [Example 221]
< 10	CCNC(=O)Cc1c(C)oc2c(C=O)c(O)ccc2c1=O [Example 223]
> 10	Cc1oc2c(C=O)c(O)ccc2c(=O)c1CC(=O)NCCN(C)C [Example 224]
> 10	Cc1oc2c(C=O)c(O)ccc2c(=O)c1CC(=O)NCCN1CCOCC1 [Example 225]

Same assay, conditions: MM1.S, read-out: EC50_av

Structure (SMILES)	EC50 [µM]
O=Cc1c(O)ccc2nc(N3CCC(NC(=O)CN4CCOCC4)C3)ccc12 (centres unmarked) [Compound 50]	< 10
O=Cc1c(O)ccc2nc(-c3ccc(C(=O)O)cc3)[nH]c12 [Compound 58]	> 10
CN1CCN(C(=O)c2ccc(-c3nc4ccc(O)c(C=O)c4[nH]3)cc2)CC1 [Compound 62]	> 10
COc1cc2c(C)c(Br)c(=O)oc2c(C=O)c1O [Example 6]	< 10
O=Cc1c(O)ccc2cc(-c3ccc(Br)cc3)c(=O)oc12 [Example 7]	> 10
Cc1c(Br)c(=O)oc2c(C=O)c(O)c(F)cc12 [Example 9]	< 10
Cc1c(-c2ccc(C(=O)N3CCCC3)cc2)c(=O)oc2c(C=O)c(O)ccc12 [Example 18]	< 10
Cc1c(-c2cccc(C(=O)N3CCCC3)c2)c(=O)oc2c(C=O)c(O)ccc12 [Example 21]	> 10
